Experimental findings from patent US20250091989A1, “SMALL MOLECULE PROTEIN SYNTHESIS MODULATORS” (Interdict Bio, Inc., priority 2023, published 2025) are described below.

Format in all cases: biochemical
What all share (conditions): HeLa S3 lysate, sfGFP/mCherry ratio, 2 hrs at 30° C.

One test has as its system MYC. Nature of the test: In vitro transcription-translation (IVTT) reporter assay, MYC test sequence. Put shortly: (§1)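 Coupled transcription-translation in HeLa S3 lysate with reporter plasmids encoding mCherry-P2A-3×FLAG-TEST-sfGFP behind an EMCV IRES. Compounds were half-log titrated (30 μM-0.1 μM in DMSO dilution plate) into master mix, then DNA was added. Reactions ran 2 hrs at 30° C, were PBS-quenched and read for fluorescence.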

A further test has as its system CCND1. The experiment in a line: In vitro transcription-translation (IVTT) reporter assay, CCND1 test sequence. From the text:
All reporter constructs have been cloned into the pT7CFE1-CHis plasmid (ThermoFisher #88860) using Gibson assembly procedures (NEB #E2611L). The parental pT7CFE1-CHis plasmid contains an EMCV IRES at the 5′UTR for translation initiation, a multiple-cloning site (MCS) for gene insertion, an optional C-terminal His-epitope tag, and polyA sequence in the 3′UTR to regulate mRNA stability. All reporters are designed to be inserted at the MCS to include a red fluorescent protein (mCherry), P2A self-cleaving peptide which releases the preceding mCherry protein product, and a fusion open reading frame containing a 3×FLAG epitope, a peptide sequence of interest (TEST), and green fluorescent protein (sfGFP).
Construct Plasmid Preparation: All plasmids are isolated from MACH1 cells (ThermoFisher) grown overnight in ampicillin-containing luria broth, and purified using ZymoPure Express Plasmid Midiprep Kit (Zymo Research). Constructs are sequenced verified and diluted to a working concentration of 110 ng/μL.
HeLa S3 Lysate Preparation: HeLa S3 cell pellets are acquired from Ipracell/Ipratech (Belgium) and shipped as 4 mL frozen cell pellets on dry ice for storage at −80° C. until use. The procedure for lysate preparation is as follows. Prepare 1× Lysis Buffer, cold and stored on ice:
Each preparation takes 8 cell pellets (4 ml packed volume each, approximately 1.0×10^9 cells per pellet). Thaw cell pellets from −80° C. on ice for 90 mins. Lay pellets horizontally on top of the ice and rotate every 30 mins to ensure even thawing. Once thawed, add 4 mL of cold lysis buffer to each pellet, and using a serological pipet, gently pipet up and down to break up clumps. Incubate resuspended cells in ice for an additional 30 mins (plunged into ice). During 30 min incubation, rinse and RNase-zap (Ambion) glass dounces (use loose pestle “A”), gently dry and place on ice until needed. Prepare RNase-free Eppendorf tubes for spinning and for batch storage. Add batch labels to 1.5-1.7 mL RNase-free microcentrifuge tubes (labeling scheme below). Each batch will have an extra 1.5-1.7 mL RNase-free microcentrifuge tube for 40 μL of lysate, label the top of this tube (labeling scheme below). After 30 min incubation, transfer all 8 mL of cell pellet to dounce. Cell lysis is complete after douncing 100 times. Aliquot cell lysis into 1.5-1.7 mL temporary-microcentrifuge tubes. Place tubes in centrifuge with “fins” out, and spin at 1,200 xg for 5 mins. After the first spin use a 1 mL pipet to resuspend each tube and repeat spin. This acts as an additional lysis step, is more vigorous and increases lysate yield. During second spin get liquid N2 and a fresh conical tube on ice.
After spin is complete, transfer supernatant (lysate) from microcentrifuge tubes into the 50 mL conical tube and keep on ice. Repeat steps 10-14 for all other cell pellets until completed. Once all cell lysate has been transferred to the 50 mL conical tube pipet to mix so the solution is homogenous. Transfer 1 mL of lysate into batch-labeled microcentrifuge tubes and flash freeze in liquid nitrogen. Be sure to pipet up and down to mix throughout transfer step. Place all tubes in the […] for long-term storage.
In vitro transcription-translation assay setup: Each assay includes a master mix containing lysate and shared components, a 96-well plate containing compound titrations for testing, a 96-well DNA plate with reporter constructs to be tested, 96-well skirted PCR plates, and 96-well flat-bottom, black, fluorescent assay plates. […]

For the next test, the system named is ALK. The experiment in a line: In vitro transcription-translation (IVTT) reporter assay, ALK test sequence. Put shortly: as §1
A further test deals with KRAS G12D. Nature of the test: In vitro transcription-translation (IVTT) reporter assay, KRAS G12D test sequence. In outline: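 Cell-free HeLa S3 lysate transcription-translation of reporter plasmids encoding mCherry-P2A-3×FLAG-test peptide (CCND1, KRAS G12D, MCL-1 or BCL-2)-sfGFP under EMCV IRES. Half-log compound dilutions (30 μM-0.1 μM, prepared in DMSO); reactions 2 h at 30 °C, quenched with PBS for fluorescence read.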

Consider `COc1ccc(C[C@H]2NC[C@H](O)[C@H]2OC(=O)CCCCCO)cc1` [V186777], for which the concentration for half-maximal inhibition (IC50) in the test on MYC, in the test on CCND1, in the test with ALK and with KRAS G12D was less than 10 µM throughout.
In the case of `COc1ccc(C[C@H]2NC[C@H](O)[C@H]2OC(=O)CC2NC(=O)CNC2=O)cc1` (stereo partly drawn) [V186862, (2R,3S,4S)-4-hydroxy-2-[(4-methoxyphenyl)methyl]pyrrolidin-3-yl 2-(3,6-dioxopiperazin-2-yl)acetate], the IC50 in the test with MYC is less than 10 µM; in the test with CCND1, greater than 30 µM; with ALK it was less than 10 µM; with KRAS G12D, greater than 30 µM.
Consider `COc1ccc(C[C@H]2NC[C@H](O)[C@H]2OC(=O)C2CCC2)cc1` [V186921, (2R,3S,4S)-4-hydroxy-2-[(4-methoxyphenyl)methyl]pyrrolidin-3-ylcyclobutanecarboxylate; trifluoroacetic acid], for which the IC50 in the test on MYC, in the test with CCND1 and with KRAS G12D was less than 10 µM each time.
As for `COc1ccc(C[C@H]2NC[C@H](O)[C@H]2OC(=O)CN2CC(F)(F)C2)cc1` [V187045, (2R,3S,4S)-4-hydroxy-2-[(4-methoxyphenyl)methyl]pyrrolidin-3-yl 2-(3,3-difluoroazetidin-1-yl)acetate; trifluoroacetic acid], the IC50 with CCND1 and in the test with ALK was less than 10 µM in each case.
`COc1ccc(C[C@H]2NC[C@H](O)[C@H]2OC(=O)Cc2ccncc2)cc1` [V187056]: the IC50 in the test on MYC, with CCND1 and with ALK was less than 10 µM each time.
Turning to `COc1ccc(C[C@H]2NC[C@H](O)[C@H]2OC(=O)Cc2ccccn2)cc1` [V187082, (2R,3S,4S)-4-hydroxy-2-[(4-methoxyphenyl)methyl]pyrrolidin-3-yl 2-(pyridin-2-yl)acetate], the IC50 in the test on MYC, with CCND1, with ALK and in the test on KRAS G12D was less than 10 µM throughout.
For `COc1ccc(C[C@H]2NC[C@H](O)[C@H]2OC(=O)C2CC(F)C2)cc1` (stereo partly drawn) [V187166, (2R,3S,4S)-4-hydroxy-2-[(4-methoxyphenyl)methyl]pyrrolidin-3-yl 3-fluorocyclobutane-1-carboxylate; trifluoroacetic acid], the IC50 with MYC, in the test with ALK and with KRAS G12D was less than 10 µM in each case.
On to `COCCC(=O)OC1[C@@H](O)CN[C@@H]1Cc1ccc(OC)cc1` (stereo partly shown) [V187168], for which the IC50 with MYC, in the test with CCND1 and with ALK was less than 10 µM throughout.
For `COc1ccc(C[C@H]2NC[C@H](O)[C@H]2OC(=O)CNC2CC2)cc1` [V187170, (2R,3S,4S)-4-hydroxy-2-[(4-methoxyphenyl)methyl]pyrrolidin-3-yl 2-(cyclopropylamino)acetate], the IC50 in the test on MYC, in the test with CCND1 and in the test with ALK was less than 10 µM in each case.
In the case of `COc1ccc(C[C@H]2NC[C@H](O)[C@H]2OC(=O)CCc2cscn2)cc1` [V187173, (2R,3S,4S)-4-hydroxy-2-[(4-methoxyphenyl)methyl]pyrrolidin-3-yl 3-(1,3-thiazol-4-yl)propanoate], the IC50 with MYC, in the test on ALK and in the test on KRAS G12D was less than 10 µM in each case.
In the case of `COc1ccc(C[C@H]2NC[C@H](O)[C@H]2OC(=O)Cc2noc(C)n2)cc1` [V187175, (2R,3S,4S)-4-hydroxy-2-[(4-methoxyphenyl)methyl]pyrrolidin-3-yl 2-(5-methyl-1,2,4-oxadiazol-3-yl)acetate; trifluoroacetic acid], the IC50 in the test on MYC, with ALK and in the test on KRAS G12D was less than 10 µM throughout.
As to `COc1ccc(C[C@H]2NC[C@H](O)[C@H]2OC(=O)CCc2cocn2)cc1` [V187176, (2R,3S,4S)-4-hydroxy-2-[(4-methoxyphenyl)methyl]pyrrolidin-3-yl 3-(1,3-oxazol-4-yl)propanoate; trifluoroacetic acid], the half-inhibitory concentration (IC50) in the test with MYC, in the test on CCND1 and with KRAS G12D was less than 10 µM throughout.
Regarding `COc1ccc(C[C@H]2NC[C@H](O)C2OC(=O)COCc2ccc3nonc3c2)cc1` (stereo partly shown) [V187179], the IC50 in the test with MYC, with ALK and in the test on KRAS G12D was less than 10 µM in each case.
Regarding `COCCOCCOCC(=O)O[C@@H]1[C@@H](O)CN[C@@H]1Cc1ccc(OC)cc1` [V187184, (2R,3S,4S)-4-hydroxy-2-[(4-methoxyphenyl)methyl]pyrrolidin-3-yl 2-[2-(2-methoxyethoxy)ethoxy]acetate], the IC50 with MYC, in the test with ALK and in the test with KRAS G12D was less than 10 µM throughout.
In the case of `COc1ccc(C[C@H]2NC[C@H](O)[C@H]2OC(=O)CC[C@@H]2NC(=O)C3(CNC3)NC2=O)cc1` [V187324, (2R,3S,4S)-4-hydroxy-2-[(4-methoxyphenyl)methyl]pyrrolidin-3-yl 3-[(7S)-6,9-dioxo-2,5,8-triazaspiro[3.5]nonan-7-yl]propanoate], the IC50 in the test on MYC was 20 to 30 µM; with ALK, greater than 30 µM; with KRAS G12D, greater than 30 µM.
With `COc1ccc(C[C@H]2NC[C@H](O)[C@H]2OC(=O)COCc2ccon2)cc1` [V187368, (2R,3S,4S)-4-hydroxy-2-[(4-methoxyphenyl)methyl]pyrrolidin-3-yl 2-(1,2-oxazol-3-ylmethoxy)acetate], the IC50 in the test on MYC, with ALK and in the test on KRAS G12D was less than 10 µM in each case.
On to `COc1ccc(C[C@H]2NC[C@H](O)[C@H]2OC(=O)Cc2nnn[nH]2)cc1` [V187533, (2R,3S,4S)-4-hydroxy-2-[(4-methoxyphenyl)methyl]pyrrolidin-3-yl 2-(1H−1,2,3,4-tetrazol-5-yl)acetate; trifluoroacetic acid], for which the IC50 was 10 to 20 µM with MYC, less than 10 µM in the test with ALK and greater than 30 µM in the test with KRAS G12D.
Consider `COc1ccc(C[C@H]2NC[C@H](O)[C@H]2OC(=O)C[C@H]2CCNC2)cc1` [V187689], for which the IC50 with MYC, in the test with ALK and with KRAS G12D was less than 10 µM throughout.
For `COc1ccc(C[C@H]2NC[C@H](O)[C@H]2OC(=O)CCCN2CCNCC2)cc1` [V187694, (2R,3S,4S)-4-hydroxy-2-[(4-methoxyphenyl)methyl]pyrrolidin-3-yl 4-(piperazin-1-yl)butanoate], the IC50 was less than 10 µM in the test on MYC, less than 10 µM with ALK and 10 to 20 µM in the test on KRAS G12D.
`COc1ccc(C[C@H]2NC[C@H](O)[C@H]2OC(=O)COCc2nnc(C)s2)cc1` [V187720]: the IC50 in the test with MYC, in the test on ALK and with KRAS G12D was less than 10 µM each time.
For `CC(=O)O[C@@H]1[C@@H](O)CN[C@@H]1Cc1ccc(-c2cn(-c3ccccc3)nn2)cc1` [V187731], the IC50 with MYC, with ALK and in the test with KRAS G12D was less than 10 µM each time.
For the molecule `CC(=O)O[C@@H]1[C@@H](O)CN[C@@H]1Cc1ccc(-c2cn(-c3ccnc(N)n3)nn2)cc1` [V188057, (2R,3S,4S)-2-({4-[1-(2-aminopyrimidin-4-yl)-1,2,3-triazol-4-yl]phenyl}methyl)-4-hydroxypyrrolidin-3-yl acetate], the IC50 in the test on MYC and in the test with CCND1 was less than 10 µM in each case.
